The values below come from patent publication US20080269526A1, “METHODS OF MAKING AN […]” (SAIC […], IP B.V., priority 2004, published 2008).

This data set in a line: Solubility of K Rimar in water. As to conditions: 20° C. (RT). From the text: The solubility of the potassium salt of perfluorobutanesulfonic acid, K Rimar, is described in Table 2.

Structures are written as SMILES.

Regarding `O=S(=O)([O-])C(F)(F)C(F)(F)C(F)(F)C(F)(F)F.[K+]` [K Rimar, Perfluorobutane sulfonate, potassium salt], the “Concentration at which K Rimar is soluble” value is “less than 0.5 g”.
